Legend:
Cavia porcellus [1] = species: Cavia porcellus; assay: Inhibitory activity against Na+/[Ca2+] exchanger after 30 min of K+ free incubation in isolated left atria from guinea pig
[2] = pKa value was determined; type: physicochemical
Cavia porcellus [3] = species: Cavia porcellus; assay: Inhibitory activity (1 uM) against Na+/[Ca2+] exchanger after 30 min of K+ free incubation in isolated left atria from guinea pig; type: functional

SMILES | IC30 (Cavia porcellus [1]) | pKa [2] | Inhibition (Cavia porcellus [3])
CN(C)CCCN1C(=O)Nc2ccccc2C1c1ccccc1 (stereo not drawn) | 350 nM |  | 
CCN(CC)CCN1C(=O)Nc2ccccc2C1c1ccccc1 (stereo not drawn) | 69 nM | 10.2 | 
CN(C)CCCN1C(=O)Nc2ccccc2C1c1cccs1 (stereo not drawn) | 720 nM |  | 
CN(C)CCCN1C(=O)Nc2ccccc2C1Cc1ccccc1 (stereo not drawn) | > 10000 nM |  | 
CN(C)CCCN1C(=O)Nc2ccc(Cl)cc2C1c1ccco1 (stereo not drawn) | 690 nM |  | 
NCCN1C(=O)Nc2ccccc2C1c1ccccc1 (stereo not drawn) | > 10000 nM |  | 
CN(C)CCCN1C(=O)Nc2ccccc2C1C1CCCCC1 (stereo not drawn) | 570 nM |  | 
O=C1Nc2ccccc2C(c2ccccc2)N1C1CCN(CC2CCCCC2)CC1 (stereo not drawn) | 4000 nM |  | 
CCN1CCC(N2C(=O)Nc3ccccc3C2c2ccccc2)CC1 (stereo not drawn) | 53 nM |  | 
CC(C)CCCN1C(=O)Nc2ccccc2C1c1ccccc1 (stereo not drawn) | > 10000 nM |  | 
CN(C)CCCN1C(S)=Nc2ccccc2C1c1ccccc1 (stereo not drawn) | 3800 nM |  | 
CC1c2ccccc2NC(=O)N1CCCN(C)C (stereo not drawn) | 5300 nM |  | 
O=C1Nc2ccccc2C(c2ccccc2)N1C1CCNCC1 (stereo not drawn) | 1100 nM |  | 
CCOCCN1C(=O)Nc2ccccc2C1c1ccccc1 (stereo not drawn) | > 10000 nM |  | 
CCOc1ccc(Oc2ccc(OCc3cc(F)ccc3F)cc2)c(N)c1 |  |  | > 80%
CN(C)CCCN1C(=O)N(C)c2ccc(Cl)cc2C1c1ccccc1 (stereo not drawn) | > 10000 nM |  | 
CN(C)CCCN1C(=O)Nc2ccccc2C1c1ccccn1 (stereo not drawn) | 510 nM |  | 
CCN(CC)CCCN1C(=O)Nc2ccccc2C1c1ccccc1 (stereo not drawn) | 40 nM |  | 
CCN(CC)C(=O)CN1C(=O)Nc2ccccc2C1c1ccccc1 (stereo not drawn) | > 10000 nM | -0.58 | 
O=C1Nc2ccccc2C(c2ccccc2)N1C1CCN(Cc2ccccc2)CC1 (stereo not drawn) | 17 nM |  | 
CCCN1CCC(N2C(=O)Nc3ccccc3C2c2ccccc2)CC1 (stereo not drawn) | 93 nM |  | 
CN(C)CCCN1C(=O)Nc2ccc(Cl)cc2C1c1ccccc1 (stereo not drawn) | 460 nM |  | 
CN1CCC(N2C(=O)Nc3ccccc3C2c2ccccc2)CC1 (stereo not drawn) | 87 nM |  | 
CCN(CC)CCCCN1C(=O)Nc2ccccc2C1c1ccccc1 (stereo not drawn) | 1900 nM |  | 
CCNCCN1C(=O)Nc2ccccc2C1c1ccccc1 (stereo not drawn) | 580 nM |  | 
O=C1Nc2ccccc2C(c2ccccc2)N1C1CCN(CCc2ccccc2)CC1 (stereo not drawn) | 3600 nM |  | 
